Assay results published in PubChem BioAssay (NCI).
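In this assay, cells in 96-well plates receive the compound at five concentrations for 48 hours. Endpoints are linearly interpolated between the surrounding concentrations. GI50 is the concentration that inhibits growth by half. TGI: total growth inhibition.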

Key:
Assay in all cases: NCI-60 cell line screen, 48 h
HCT-15 colon = system: HCT-15 colon
SF-539 CNS = system: SF-539 CNS
SF-295 CNS = system: SF-295 CNS
SW-620 colon = system: SW-620 colon
CCRF-CEM leukemia = system: CCRF-CEM leukemia
MDA-MB-435 = system: MDA-MB-435
OVCAR-8 ovarian = system: OVCAR-8 ovarian
LOX IMVI melanoma = system: LOX IMVI melanoma
SK-OV-3 ovarian = system: SK-OV-3 ovarian
NCI/ADR-RES ovarian = system: NCI/ADR-RES ovarian
NCI-H522 lung = system: NCI-H522 lung
786-0 renal = system: 786-0 renal
SK-MEL-2 melanoma = system: SK-MEL-2 melanoma
SK-MEL-5 melanoma = system: SK-MEL-5 melanoma
SNB-75 CNS = system: SNB-75 CNS
NCI-H226 lung = system: NCI-H226 lung
RPMI-8226 leukemia = system: RPMI-8226 leukemia
OVCAR-4 ovarian = system: OVCAR-4 ovarian
KM12 colon = system: KM12 colon
MOLT-4 leukemia = system: MOLT-4 leukemia
NCI-H23 lung = system: NCI-H23 lung
MALME-3M melanoma = system: MALME-3M melanoma
UACC-257 melanoma = system: UACC-257 melanoma
COLO 205 colon = system: COLO 205 colon
UACC-62 melanoma = system: UACC-62 melanoma
U251 CNS = system: U251 CNS
OVCAR-5 ovarian = system: OVCAR-5 ovarian
NCI-H460 lung = system: NCI-H460 lung
UO-31 renal = system: UO-31 renal
TK-10 renal = system: TK-10 renal
ACHN renal = system: ACHN renal
A549 NSCLC = system: A549 NSCLC
OVCAR-3 ovarian = system: OVCAR-3 ovarian
HS 578T breast = system: HS 578T breast
SR leukemia = system: SR leukemia
K-562 leukemia = system: K-562 leukemia
HCC-2998 colon = system: HCC-2998 colon
HL-60(TB) leukemia = system: HL-60(TB) leukemia
EKVX NSCLC = system: EKVX NSCLC
PC-3 prostate = system: PC-3 prostate
MCF7 breast = system: MCF7 breast
T-47D breast = system: T-47D breast
M14 melanoma = system: M14 melanoma
HOP-62 NSCLC = system: HOP-62 NSCLC
IGROV1 ovarian = system: IGROV1 ovarian
HCT-116 colon = system: HCT-116 colon
SF-268 CNS = system: SF-268 CNS
CAKI-1 renal = system: CAKI-1 renal
DU-145 prostate = system: DU-145 prostate
SNB-19 CNS = system: SNB-19 CNS
HT29 colon = system: HT29 colon
SN12C renal = system: SN12C renal
HOP-92 NSCLC = system: HOP-92 NSCLC
MDA-MB-231 breast = system: MDA-MB-231 breast
A498 renal = system: A498 renal
SK-MEL-28 melanoma = system: SK-MEL-28 melanoma
BT-549 breast = system: BT-549 breast

Structure (SMILES): COC(=O)c1cc2c(cc1Cl)SC1=NN(C)S(=O)N1S2(=O)=O (centres undefined)
- GI50 (HCT-15 colon): > 100 µM
- TGI (HCT-15 colon): > 100 µM
- GI50 (SF-539 CNS): > 100 µM
- TGI (SF-539 CNS): > 100 µM
- GI50 (SF-295 CNS): > 100 µM
- TGI (SF-295 CNS): > 100 µM
- GI50 (SW-620 colon): > 100 µM
- TGI (SW-620 colon): > 100 µM
- GI50 (CCRF-CEM leukemia): > 100 µM
- TGI (CCRF-CEM leukemia): > 100 µM
- GI50 (MDA-MB-435): > 100 µM
- TGI (MDA-MB-435): > 100 µM
- GI50 (OVCAR-8 ovarian): > 100 µM
- TGI (OVCAR-8 ovarian): > 100 µM
- GI50 (LOX IMVI melanoma): > 100 µM
- TGI (LOX IMVI melanoma): > 100 µM
- GI50 (SK-OV-3 ovarian): > 100 µM
- TGI (SK-OV-3 ovarian): > 100 µM
- GI50 (NCI/ADR-RES ovarian): > 100 µM
- TGI (NCI/ADR-RES ovarian): > 100 µM
- GI50 (NCI-H522 lung): > 100 µM
- TGI (NCI-H522 lung): > 100 µM
- GI50 (786-0 renal): > 100 µM
- TGI (786-0 renal): > 100 µM
- GI50 (SK-MEL-2 melanoma): > 100 µM
- TGI (SK-MEL-2 melanoma): > 100 µM
- GI50 (SK-MEL-5 melanoma): > 100 µM
- TGI (SK-MEL-5 melanoma): > 100 µM
- GI50 (SNB-75 CNS): 85.9 µM
- TGI (SNB-75 CNS): > 100 µM
- GI50 (NCI-H226 lung): > 100 µM
- TGI (NCI-H226 lung): > 100 µM
- GI50 (RPMI-8226 leukemia): > 100 µM
- TGI (RPMI-8226 leukemia): > 100 µM
- GI50 (OVCAR-4 ovarian): > 100 µM
- TGI (OVCAR-4 ovarian): > 100 µM
- GI50 (KM12 colon): > 100 µM
- TGI (KM12 colon): > 100 µM
- GI50 (MOLT-4 leukemia): > 100 µM
- TGI (MOLT-4 leukemia): > 100 µM
- GI50 (NCI-H23 lung): > 100 µM
- TGI (NCI-H23 lung): > 100 µM
- GI50 (MALME-3M melanoma): > 100 µM
- TGI (MALME-3M melanoma): > 100 µM
- GI50 (UACC-257 melanoma): > 100 µM
- TGI (UACC-257 melanoma): > 100 µM
- GI50 (COLO 205 colon): > 100 µM
- TGI (COLO 205 colon): > 100 µM
- GI50 (UACC-62 melanoma): > 100 µM
- TGI (UACC-62 melanoma): > 100 µM
- GI50 (U251 CNS): > 100 µM
- TGI (U251 CNS): > 100 µM
- GI50 (OVCAR-5 ovarian): > 100 µM
- TGI (OVCAR-5 ovarian): > 100 µM
- GI50 (NCI-H460 lung): > 100 µM
- TGI (NCI-H460 lung): > 100 µM
- GI50 (UO-31 renal): 70.2 µM
- TGI (UO-31 renal): > 100 µM
- GI50 (TK-10 renal): > 100 µM
- TGI (TK-10 renal): > 100 µM
- GI50 (ACHN renal): > 100 µM
- TGI (ACHN renal): > 100 µM
- GI50 (A549 NSCLC): > 100 µM
- TGI (A549 NSCLC): > 100 µM
- GI50 (OVCAR-3 ovarian): > 100 µM
- TGI (OVCAR-3 ovarian): > 100 µM
- GI50 (HS 578T breast): > 100 µM
- TGI (HS 578T breast): > 100 µM
- GI50 (SR leukemia): > 100 µM
- TGI (SR leukemia): > 100 µM
- GI50 (K-562 leukemia): > 100 µM
- TGI (K-562 leukemia): > 100 µM
- GI50 (HCC-2998 colon): > 100 µM
- TGI (HCC-2998 colon): > 100 µM
- GI50 (HL-60(TB) leukemia): > 100 µM
- TGI (HL-60(TB) leukemia): > 100 µM
- GI50 (EKVX NSCLC): > 100 µM
- TGI (EKVX NSCLC): > 100 µM
- GI50 (PC-3 prostate): > 100 µM
- TGI (PC-3 prostate): > 100 µM
- GI50 (MCF7 breast): > 100 µM
- TGI (MCF7 breast): > 100 µM
- GI50 (T-47D breast): > 100 µM
- TGI (T-47D breast): > 100 µM
- GI50 (M14 melanoma): > 100 µM
- TGI (M14 melanoma): > 100 µM
- GI50 (HOP-62 NSCLC): > 100 µM
- TGI (HOP-62 NSCLC): > 100 µM
- GI50 (IGROV1 ovarian): > 100 µM
- TGI (IGROV1 ovarian): > 100 µM
- GI50 (HCT-116 colon): > 100 µM
- TGI (HCT-116 colon): > 100 µM
- GI50 (SF-268 CNS): > 100 µM
- TGI (SF-268 CNS): > 100 µM
- GI50 (CAKI-1 renal): > 100 µM
- TGI (CAKI-1 renal): > 100 µM
- GI50 (DU-145 prostate): > 100 µM
- TGI (DU-145 prostate): > 100 µM
- GI50 (SNB-19 CNS): > 100 µM
- TGI (SNB-19 CNS): > 100 µM
- GI50 (HT29 colon): > 100 µM
- TGI (HT29 colon): > 100 µM
- GI50 (SN12C renal): > 100 µM
- TGI (SN12C renal): > 100 µM
- GI50 (HOP-92 NSCLC): 53.7 µM
- TGI (HOP-92 NSCLC): > 100 µM
- GI50 (MDA-MB-231 breast): > 100 µM
- TGI (MDA-MB-231 breast): > 100 µM
- GI50 (A498 renal): 75 µM
- TGI (A498 renal): > 100 µM
- GI50 (SK-MEL-28 melanoma): > 100 µM
- TGI (SK-MEL-28 melanoma): > 100 µM
- GI50 (BT-549 breast): > 100 µM
- TGI (BT-549 breast): > 100 µM
